The values that follow come from article PMC11521937, “Expression and characterization of pantothenate energy‐coupling factor transporters as an anti‐infective drug target” (Protein Science : A Publication of the Protein Society, 2024).

≈ marks a conversion by molar mass, not a printed value. Like-named read-outs stand apart in the source and are kept apart here.

The test system of assay [1] is Streptococcus pneumoniae DSM‐20566. In words: bacterial growth assay (MIC), S. pneumoniae DSM‐20566. Format: cell-based.
Another assay relates to S. pneumoniae ECF‐PanT. In words: Transport‐activity assay, radiolabeled pantothenate uptake into proteoliposomes. The format is biochemical, Streptococcus pneumoniae. The settings on record: 250 μM compound + 5 mM of Mg-ATP, relative to 5 mM Mg‐ATP alone. The procedure: Based on the reported transport activity assay on L. delbrueckii (Swier et al., [2016]), for the first time, we adapted this assay to a pathogenic bacterium. To do so, we purified the ECF‐PanT transporter, reconstituted it into proteoliposomes, and carried out transport assays with radiolabeled pantothenate. Upon the addition of MgATP, the radiolabeled pantothenate is translocated across the membrane via an ATP‐dependent mechanism. MgATP at 5 mM served as a positive control, supplying the proteins with the energy needed to complete the transport cycle, while MgADP at 5 mM was used as a negative control. The uptake of the radiolabeled substrate into proteoliposomes was measured using a scintillation counter.
The assay was performed based on the published protocol (Swier et al., [2016]). The only modification was reconstitution of S. pneumoniae ECF‐PanT in a 1:125 (w/w) ratio of protein to E. coli polar lipids into large unilamellar vesicles and using radiolabeled pantothenate for uptake.

Another assay deals with ECF‐PanT (Streptococcus pneumoniae, UniProt A0A0H2ZPG6+A0ACD7PRR9+Q04HV7+Q97N51). Description: SPR binding to immobilized ECF‐PanT. The settings on record: for Kd: SPR, S. pneumoniae ECF‐PanT, n = 2; for kon: pH 7.5, read-out: k a; for koff: pH 7.5, read-out: k d. As for the experimental part:
The ECF‐PanT, ECF‐module, and ECF‐FolT2, each bearing a histidine tag, were immobilized on a high‐affinity poly‐nitrilotriacetic acid (poly‐NTA) sensor chip, which was initially activated using NiCl2.
Additionally, the protein was maintained in the buffer containing 5% (v/v) DMSO. For a more in‐depth description of the procedures, please refer to Appendix S1.
Surface plasmon resonance (SPR)
The SPR binding studies were performed using a Reichert 4SPR surface plasmon resonance spectrometer (Reichert Technologies, Buffalo, NY, USA), and medium–density NTA derivatized polycarboxylate hydrogel NiHC200M sensor chips (XanTec Bioanalytics, Düsseldorf, Germany). The experimental procedure involved two rounds of nickel activation and one immobilization step at a […]
standard protocol as provided by Xantec bioanalytics with a slight modification based on the recombinant proteins. The flow-cell 4 was left blank to serve as a reference.
The immobilization buffer employed for the immobilization process consisted of 10 mM HEPES with a pH of 7.5, 50 mM NaCl, 50 µM EDTA, and 0.05% DDM without DMSO. Following the immobilization step, for the binding study of the compounds, the running buffer was exchanged for the mentioned buffer with 5% v/v DMSO. This was done to ensure consistency in the percentage of DMSO present in the solutions containing the respective testing inhibitors, as these inhibitors were soluble in the DMSO solvent. By maintaining the same DMSO concentration, we aimed to minimize any potential solvent-related effects on the assay results. All running buffers were filtered and degassed before use.
The system was initially primed with 5 mM NiCl2 with an association and dissociation time of 2 min for each to activate the NTA sensor chip. Then, the recombinant proteins with a concentration of 200 nM were injected at a flow rate of 10 µL/min for 8 min. Finally, the baseline check with the running […]
First, the calibration curve for correction of the DMSO effect was prepared; the concentrations were […]
concentration of DMSO in all the samples was set to 5% v/v DMSO. The samples (200 µL) were loaded on a 96-well plate and were injected at a flow rate of 50 μL/min. Single-cycle kinetics were applied for KD determination. The association time was set to 60 s, and the dissociation phase was recorded for 120 s. For surface regeneration, 0.35 M EDTA (pH 8.5) and 0.1 M NaOH were used. Data processing and […]
were calculated by sequential subtractions of the corresponding curves obtained from the reference flow cell and the running buffer (blank). SPR responses were expressed in the resonance unit (RU). The KD values were calculated by global fitting of the kinetic curves as well as fitting of the steady state binding responses to a 1:1 Langmuir interaction model.
The SPR experiments were conducted at least two times, representing independent replicates. The […]
interactions, are presented in Figure S12 for ECF-PanT, Figure S13 for ECF-FolT2, and Figure S14 for […]
In general terms: In SPR one partner is held on a chip, and binding of the other changes the refractive index at the surface.

[2] abbreviates: Equilibrium, K D, steady state fit.
Setting [3] is: Kinetic, K D, global fit of kinetic curves.
Setting [4] is: global fit of kinetic curves, read-out: Kinetic, K D.
[5] abbreviates: steady state fit, read-out: Equilibrium, K D.

For the molecule `O=C(O)c1cc(OCc2cccc3ccccc23)ccc1O` [Compound 1], in assay [1], the MIC turned out to be 128 µM (≈ 37.7 µg/mL). In addition, the “Percentage inhibition of pantothenate uptake” value (“Percentage inhibition” below) in the assay on S. pneumoniae ECF‐PanT is 81.8%. The figures for the Kd on ECF‐PanT (setting [2]) and at ECF‐PanT (setting [3]) were 277 ± 5 µM and 276 ± 4 µM, respectively.

For the molecule `O=C(O)c1cc(OCc2ccc(Br)c3ccccc23)ccc1O` [Compound 2], the MIC in assay [1] was determined as 8 µM (≈ 2.99 µg/mL). Moreover, the “Percentage inhibition” value with S. pneumoniae ECF‐PanT is on record as 117.2%. Besides, the Kd at ECF‐PanT (setting [2]) worked out at 170 ± 5 µM; on ECF‐PanT (setting [3]), 172 ± 2 µM.

In assay [1], `CC(C)(C)OC(=O)Nc1ccc(OCc2cccc3ccccc23)cc1C(=O)O` [Compound 3] yielded a minimal inhibitory concentration (MIC) of 16 µM (≈ 6.3 µg/mL). The “Percentage inhibition” value with S. pneumoniae ECF‐PanT is recorded as 80.7%. The Kd on ECF‐PanT (setting [2]) stood at 96 ± 8 µM. The same molecule gave a Kd on ECF‐PanT (setting [3]) of 99 ± 1 µM. In addition, at ECF‐PanT, the kon was 650 ± 9 M⁻¹ s⁻¹ and the koff was determined as 0.0643 ± 0.0006 s⁻¹.

The molecule `O=C(O)c1cccc(NCc2ccc(-c3ccc(Cl)cc3)o2)c1` [Compound 4] came in with an MIC in assay [1] of 64 µM (≈ 21 µg/mL). Further, the “Percentage inhibition” value with S. pneumoniae ECF‐PanT is recorded as 95.2%. In addition, the Kd on ECF‐PanT (setting [4]) was 317 ± 3 µM. At ECF‐PanT (setting [5]), the Kd stood at 304 ± 6 µM. At ECF‐PanT, the kon was determined as 399 ± 4 M⁻¹ s⁻¹ and the koff stood at 0.127 ± 0.001 s⁻¹.

On to `O=C(O)c1cccc(NCc2ccc(-c3cccc(Cl)c3)o2)c1` [Compound 5], for which the lowest concentration to inhibit growth in assay [1] (MIC) was 128 µM (≈ 42 µg/mL). The “Percentage inhibition” value with S. pneumoniae ECF‐PanT was 90.6%. In addition, the Kd at ECF‐PanT (setting [4]) came to 451 ± 8 µM. Moreover, at ECF‐PanT (setting [5]), the Kd worked out at 420 ± 10 µM. At ECF‐PanT, the kon was found to be 348 ± 7 M⁻¹ s⁻¹ and the koff came out at 0.157 ± 0.002 s⁻¹.

In turn, `O=C(O)c1cccc(NCc2ccc(-c3ccccc3Cl)o2)c1` [Compound 6] registered an MIC in assay [1] of 128 µM (≈ 42 µg/mL). Moreover, the “Percentage inhibition” value with S. pneumoniae ECF‐PanT was 61.9%. Further, at ECF‐PanT (setting [4]), the Kd is 391 ± 6 µM. The Kd at ECF‐PanT (setting [5]) was 374 ± 6 µM. Further, at ECF‐PanT, the kon was determined as 376 ± 6 M⁻¹ s⁻¹ and the koff was 0.147 ± 0.002 s⁻¹.

The term MIC denotes the smallest concentration in the dilution series that meets the test's criterion for growth inhibition. Low readings indicate a more susceptible organism, high ones a less susceptible organism.
